# Results published in patent US20020188026A1, “Methods of sterilizing with dipercarboxylic acids” (Lynntech, Inc., priority 2000, published 2002).
# Values joined by “and” are separate entries in the source; they are usually repeats but may differ in a detail not shown here. Equal entries are not always repeated.
# Legend:
# [1] = Crude estimate of solubility in water; type: physicochemical; settings: crude experiment, estimated
# Source text: A crude experiment was done to first estimate the solubility in water of diperglutaric acid (C5), dipersuberic acid (C8), and dipersebacic acid (C10) prepared in accordance with Example 1. It was estimated that the limit of solubility of these peracids in water was 10%, 0.8%, and 0.1% wt/v for diperglutaric, dipersuberic, and dipersebacic, respectively.
# [2] = tested on: Bacillus subtilis spores; test: Sporicidal testing, spores heat fixed to glass slides; type: cell-based; settings: for Log10 post-disinfection count (cfu/coupon): pre-disinfection 6.69
# Protocol: Additional spore testing experiments were done with diperglutaric acid. In this example, the diperglutaric acid was dissolved in a 90% water and 10% ethanol solution and used to kill Bacillus subtilis spores. […] Sporicidal capabilities of diperglutaric acid were tested at various concentrations. These procedures called for a 30-minute treatment of Bacillus subtilis spores heat fixed to glass slides. Glass slides were cut in half lengthwise. A suspension of spores, obtained from Steris Corporation of Mentor, Ohio (order #Na026) in 10% bovine serum albumin (as a simulated organic load) was prepared at a concentration of 1.2×10^8 spores per mL. 100 μL of this suspension was heat-fixed to each glass slide. These slides were immersed in the following dilutions of the diperglutaric acid: 2%, 1%, 0.3%, 0.1%, and 0.03%.
# Control slides were treated in glutaric acid: 2% and 1% in a 10% ethanol/water solution. All treatment concentrations were tested in duplicate. The spore coupons were immersed in 30 ml of test solution for 30 minutes. Following the treatment, the slides were rinsed in sterile water to remove residual acid. Each slide was then placed in a sterile 15-ml test tube containing 2 ml of sterile water. These tubes were sonicated for one hour to resuspend all spores. The sonicated slides were removed from the test tubes. The remaining solutions were serially diluted, plated in duplicate on nutrient agar and incubated for 18-24 hours at 37° C.
# The control values (pre-disinfection counts) were obtained from spore carriers immersed in sterile distilled water for 30 minutes prior to rinsing, recovery, and enumeration. The average log10 recovery from these controls was log106.69 per carrier. This compares favorably with the initial number of spores added, which was log107.08. The number of viable spores recovered was 40% of the number initially applied. […] Losses of 90% or less are generally considered acceptable in this type of experiment. […] A log reduction of less than log100.5cfu/carrier was achieved. Thus, the unreacted parent carboxylic acid has little effect on spores. […] Even at a concentration of 0.33%, the diperglutaric acid's effect on spores was similar to that of 2% glutaraldehyde.
# [3] = tested on: P. aeruginosa; test: Biopsy punch enumeration; type: cell-based; settings: 1% treatment
# Protocol: (§1) Biopsy punch enumeration is an extension of the zone of inhibition test, which involves enumerating organisms on the surface or within a removed core (punch). This test provides a quantitative analysis of the viable organisms remaining after treatment. This procedure was carried out exactly the same as the zone of inhibition testing. After incubation, however, the disc was removed from the plate and a 6-mm core was taken with a sterile, disposable biopsy punch precisely in the location where the disc had been removed. The same three organisms were used and the following treatments were sampled in duplicate: 1.0% diperglutaric acid and 1.0% glutaric acid in water. The core of each plate was aseptically placed in a microcentrifuge tube with 1 ml of sterile 0.85% saline solution and placed on a vortex for 5 minutes. These samples were diluted and plated in duplicate on nutrient agar and allowed to incubate at 37° C. for 18-24 hours for enumeration.
# [4] = tested on: E. coli; test: Biopsy punch enumeration; type: cell-based; settings: 1% treatment
# Protocol: as §1
# [5] = tested on: S. aureus; test: Biopsy punch enumeration; type: cell-based; settings: 1% treatment
# Protocol: as §1
# [6] = tested on: Psuedomonas aeruginosa; test: Zone of inhibition test; type: cell-based; settings: P. aeruginosa, 20 μL on 6 mm disc, duplicate experiments
# Protocol: (§2) Zone of inhibition tests are qualitative screens for the inhibitory effect of the compound being tested. Clear zones created by a compound on a bacterial lawn indicates bacteriostatic ability and possible bactericidal capability and the size of the zone of inhibition is a semi-qualitative measure of the strength of the compound. The procedure involved creating lawns of bacteria by spreading 100 μL of broth culture evenly on nutrient agar plates. The bacteria were drawn from broth cultures that had recently reached maximum density. The organisms were Staphylococcus aureus, Psuedomonas aeruginosa, and Escherichia coli. Sterile, 6 mm, white paper discs were placed in the middle of each bacterial lawn. 20 μL of treatment were dispensed onto the surface of each disc. The treatments were: 1.0% and 0.033% diperglutaric acid, 1.0% glutaric acid in water. Each treatment was performed in duplicate for each organism. The plates were incubated at 37° C. for 18-24 hours. All zones were then measured in millimeters across the diameter of the zone of inhibition.
# [7] = tested on: Escherichia coli; test: Zone of inhibition test; type: cell-based; settings: E. coli, 20 μL on 6 mm disc, duplicate experiments
# Protocol: as §2
# [8] = tested on: Staphylococcus aureus; test: Zone of inhibition test; type: cell-based; settings: S. aureus, 20 μL on 6 mm disc, duplicate experiments
# Protocol: as §2
# [9] = concentrated peracid solution; cited from earlier work
# [10] = 2.0% freshly prepared glutaraldehyde preparation
smiles,measurement,setting,value
O=C(CCCCCCCCC(=O)OO)OO [dipersebacic acid],limit of solubility in water,[1],0.1 % wt/v
"O=C(O)CCCC(=O)O [Glutaric acid, reference compound]",Average log10 postdisinfection count (cfu/coupon),"[2]; 1.0% in 10% EtOH, 30 minutes",6.23 cfu/coupon
same,Average log10 reduction (cfu/coupon),"[2]; 1.0% in 10% EtOH, 30 minutes",0.46 cfu/coupon
same,Log10 post-disinfection count (cfu/coupon),"[2]; 1.0% in 10% EtOH, 30 minutes",6.26 cfu/coupon and 6.19 cfu/coupon
same,Average log10 postdisinfection count (cfu/coupon),"[2]; 2.0% in 10% EtOH, 30 minutes",6.26 cfu/coupon
same,Average log10 reduction (cfu/coupon),"[2]; 2.0% in 10% EtOH, 30 minutes",0.43 cfu/coupon
same,Log10 post-disinfection count (cfu/coupon),"[2]; 2.0% in 10% EtOH, 30 minutes",6.27 cfu/coupon and 6.24 cfu/coupon
same,sporicidal effectiveness,[2]; concentrations of 1% and 2% for 30 minutes,not an effective sporicidal agent
same,Log10 reduction (cfu/6 mm diameter sample),[3],0.00 cfu/6 mm diameter sample
same,Log10 postdisinfection count (cfu/6 mm diameter sample),[3]; predisinfection 7.53,7.57 cfu/6 mm diameter sample
same,Log10 postdisinfection count (cfu/6 mm diameter sample),[4]; predisinfection 7.44,6.75 cfu/6 mm diameter sample
same,Log10 reduction (cfu/6 mm diameter sample),[5],0.63 cfu/6 mm diameter sample
same,Log10 postdisinfection count (cfu/6 mm diameter sample),[5]; predisinfection 8.11,7.48 cfu/6 mm diameter sample
same,Diameter of Zones of Inhibition,[6]; 1% in water,No zone
same,Diameter of Zones of Inhibition,[7]; 1% in water,No zone
same,Diameter of Zones of Inhibition,[8]; 1% in water,No zone
"O=C(CCC(=O)OO)OO [dipersuccinic acid, reference compound]",stability of peracid concentrate,[9],did not form stable peracid concentrates
O=C(CCCCC(=O)OO)OO [diperadipic acid],solubility for peracid concentrate solution,[9],not soluble enough to prepare an adequate peracid concentrate solution
"O=CCCCC=O [Glutaraldehyde, reference compound]",Average log10 postdisinfection count (cfu/coupon),[2]; [10],3.10 cfu/coupon
same,Average log10 reduction (cfu/coupon),[2]; [10],3.05 cfu/coupon
"O=C(CCCC(=O)OO)OO [Diperglutaric acid, diperglutaric acid]",limit of solubility in water,[1],10 % wt/v
same,Average log10 postdisinfection count (cfu/coupon),"[2]; 0.033% in 10% EtOH, 30 minutes",4.99 cfu/coupon
same,Average log10 reduction (cfu/coupon),"[2]; 0.033% in 10% EtOH, 30 minutes",1.70 cfu/coupon
same,Average log10 postdisinfection count (cfu/coupon),"[2]; 0.1% in 10% EtOH, 30 minutes",4.72 cfu/coupon
same,Average log10 reduction (cfu/coupon),"[2]; 0.1% in 10% EtOH, 30 minutes",1.97 cfu/coupon
same,Average log10 postdisinfection count (cfu/coupon),"[2]; 0.33% in 10% EtOH, 30 minutes",3.57 cfu/coupon
same,Average log10 reduction (cfu/coupon),"[2]; 0.33% in 10% EtOH, 30 minutes",3.12 cfu/coupon
same,Log10 post-disinfection count (cfu/coupon),"[2]; 0.33% in 10% EtOH, 30 minutes",3.62 cfu/coupon and 3.52 cfu/coupon
same,viable spores recovered from carriers,[2]; 1% and 2% for 30 minutes,no viable spores were recovered
same,Average log10 postdisinfection count (cfu/coupon),"[2]; 1.0% in 10% EtOH, 30 minutes",<1.0 cfu/coupon
same,Average log10 reduction (cfu/coupon),"[2]; 1.0% in 10% EtOH, 30 minutes",6.69 cfu/coupon
same,Average log10 postdisinfection count (cfu/coupon),"[2]; 2.0% in 10% EtOH, 30 minutes",<1.0 cfu/coupon
same,Average log10 reduction (cfu/coupon),"[2]; 2.0% in 10% EtOH, 30 minutes",6.69 cfu/coupon
same,Log10 reduction (cfu/6 mm diameter sample),[3],7.53 cfu/6 mm diameter sample
same,Log10 reduction (cfu/6 mm diameter sample),[4],7.44 log10
same,Log10 reduction (cfu/6 mm diameter sample),[5],8.11 cfu/6 mm diameter sample
same,Diameter of Zones of Inhibition,[6]; 0.033%,10 mm and 11 mm
same,Diameter of Zones of Inhibition,[6]; 1% in water,"12 mm, 12 mm"
same,Diameter of Zones of Inhibition,[7]; 0.033%,"10 mm, 10 mm"
same,Diameter of Zones of Inhibition,[7]; 1% in water,12 mm and 13 mm
same,Diameter of Zones of Inhibition,[8]; 0.033%,10 mm and 9 mm
same,Diameter of Zones of Inhibition,[8]; 1% in water,"13 mm, 13 mm"
O=C(CCCCCCC(=O)OO)OO [dipersuberic acid],limit of solubility in water,[1],0.8 % wt/v
